Data: patent publication US9169259B2, “Imidazopyridazine compounds” (Hoffmann-La Roche Inc., priority 2011, dated 2015)
Structures can show the parent of a compound that is named as a salt.

target: recombinant human SYK360-635 (Homo sapiens (Human), UniProt P43405); test: SYK kinase assay (33P ATP filtration, IC50 of SYK inhibition); assay type: biochemical; conditions: truncated SYK aa 360-635 0.5 nM, ATP 20 μM, peptide 5 μM, 30° C. 15 min; read-out: ENZYME_FILTRATION_IC50
Method: Determination of IC50 of Spleen Tyrosine Kinase (SYK) Inhibition:
SYK kinase assay is a standard kinase assay adapted to a 96 well plate format. This assay is performed in 96-well format for IC50 determination with […] which represented 10 half log dilutions and a 40 μL reaction volume. The assay measures the incorporation of radiolabeled ^33P γATP into an N-terminally biotinylated peptide substrate, derived from naturally occurring phosphoacceptor consensus sequence (Biotin-11aa DY*E). Phosphorylated products were detected upon termination of reactions with EDTA and the addition of Streptavidin coated beads.
Assay plates: 96-well MultiScreen 0.65 um filter plates (Millipore Cat. No.: MADVNOB10)
final concentration: 50 mM HEPES pH7.5
BSA: Bovine Serum Albumin Fraction V, fatty acid free (Roche Diagnostics GmbH, Cat. No. 9100221) diluted to a final concentration of 0.1%
Assay Dilution Buffer (ADB): 50 mM HEPES, 0.1 mM EGTA, 0.1 mM Na Vanadate, 0.1 mM β-glycerophosphate, 10 mM MgCl2, 1 mM DTT, 0.1% BSA, pH 7.5
Bead wash buffer: 10 g/L PBS (Phosphate buffered saline) with 2M NaCl+1% phosphoric acid.
DMSO and the mixture was incubated for 10 min at RT.
The kinase reaction was initiated by the addition of 10 μL 4× substrate cocktail containing the DYE peptide substrate [0 or 5 μM], ATP [20 μM] and ^33PγATP [2 μCi/r×n]. After incubation at 30° C. for 15 min, the reaction was terminated by the transfer of 25 μL of the reaction sample to a 96 well 0.65 μm Millipore MADVNOB membrane/plate containing 200 μL 5 mM EDTA and 20% Streptavidine coated beads in PBS.
After the last wash membrane/plates were transferred to an adaptor plate, heat dried for 15 min at 60° C., and 50 μL scintillation cocktail was added to each well and 4 h later the amount of radioactivity was counted in a top counter.

Row | IC50 [nM] | SMILES
1 | 478 | COC(=O)c1cccc(-c2cc(Nc3cccc(N4CCCC4C)n3)c3nccn3n2)c1 (stereo not drawn) [Example I-8, 3-{8-[6-(2-Methyl-pyrrolidin-1-yl)-pyridin-2-ylamino]-imidazo[1,2-b]pyridazin-6-yl}-benzoic acid methyl ester]
2 | 258 | O=C(O)c1cccc(-c2cc(Nc3cccc(N4CCCC4CO)n3)c3nccn3n2)c1 (stereo not drawn) [Example I-20, 3-{8-[6-(2-Hydroxymethyl-pyrrolidin-1-yl)-pyridin-2-ylamino]-imidazo[1,2-b]pyridazin-6-yl}-benzoic acid]
3 | 42.1 | COc1ccc(Nc2cc(N3CCC(NC(=O)c4ccc(C(=O)O)cc4)C3)nn3ccnc23)nc1OC (stereo not drawn) [Example I-76, N-{1-[8-(5,6-Dimethoxy-pyridin-2-ylamino)-imidazo[1,2-b]pyridazin-6-yl]-pyrrolidin-3-yl}-terephthalamic acid]
4 | 194 | Cc1c(C(=O)O)cccc1-c1cc(Nc2cccc(N3CCC[C@@H]3C)n2)c2nccn2n1 [Example I-24, 2-Methyl-3-{8-[6-((S)-2-methyl-pyrrolidin-1-yl)-pyridin-2-ylamino]-imidazo[1,2-b]pyridazin-6-yl}-benzoic acid]
5 | 1050 | CC1(C)CCN(c2cccc(Nc3cc(-c4ccccc4)nn4ccnc34)n2)C1 [Example I-34, [6-(3,3-Dimethyl-pyrrolidin-1-yl)-pyridin-2-yl]-(6-phenyl-imidazo[1,2-b]pyridazin-8-yl)-amine]
6 | 87.6 | CC1CCCN1c1cccc(Nc2cc(-c3ccc(C(=O)NCCc4ccncc4)cc3)nn3ccnc23)n1 (stereo not drawn) [Example I-16, 4-{8-[6-(2-Methyl-pyrrolidin-1-yl)-pyridin-2-ylamino]-imidazo[1,2-b]pyridazin-6-yl}-N-(2-pyridin-4-yl-ethyl)-benzamide]
7 | 1.65 | CC1CCCN1c1cccc(Nc2cc(-c3cccc(C(=O)Nc4ccc(C(=O)O)cc4)c3)nn3ccnc23)n1 (stereo not drawn) [Example I-10, 4-(3-{8-[6-(2-Methyl-pyrrolidin-1-yl)-pyridin-2-ylamino]-imidazo[1,2-b]pyridazin-6-yl}-benzoylamino)-benzoic acid]
8 | 188 | CC1CCCN1c1cccc(Nc2cc(-c3ccncc3)nn3ccnc23)n1 (stereo not drawn) [Example I-81, [6-(2-Methyl-pyrrolidin-1-yl)-pyridin-2-yl]-(6-pyridin-4-yl-imidazo[1,2-b]pyridazin-8-yl)-amine]
9 | 599 | CC1(C)CCN(c2cccc(Nc3cc(-c4cccc(C(=O)O)c4)nn4ccnc34)n2)C1 [Example I-59, 3-{8-[6-(3,3-Dimethyl-pyrrolidin-1-yl)-pyridin-2-ylamino]-imidazo[1,2-b]pyridazin-6-yl}-benzoic acid]
10 | 115 | CC1CCCN1c1cccc(Nc2cc(-c3ccc4c(c3)OCO4)nn3ccnc23)n1 (stereo not drawn) [Example I-18, (6-Benzo[1,3]dioxol-5-yl-imidazo[1,2-b]pyridazin-8-yl)-[6-(2-methyl-pyrrolidin-1-yl)-pyridin-2-yl]-amine]
11 | 60.8 | CC1CCCN1c1cccc(Nc2cc(-c3cccc(CN4CCCC4)c3)nn3ccnc23)n1 (stereo not drawn) [Example I-70, [6-(2-Methyl-pyrrolidin-1-yl)-pyridin-2-yl]-[6-(3-pyrrolidin-1-ylmethyl-phenyl)-imidazo[1,2-b]pyridazin-8-yl]-amine]
12 | 2.2 | COc1ccc(Nc2cc(N3CCCC(NC(=O)c4ccc(C(=O)O)cc4)C3)nn3ccnc23)nc1OC (stereo not drawn) [Example I-72, N-{1-[8-(5,6-Dimethoxy-pyridin-2-ylamino)-imidazo[1,2-b]pyridazin-6-yl]-piperidin-3-yl}-terephthalamic acid]
13 | 157 | CC1CCCN1c1cccc(Nc2cc(-c3ccc(OCCN4CCOCC4)cc3)nn3ccnc23)n1 (stereo not drawn) [Example I-90, [6-(2-Methyl-pyrrolidin-1-yl)-pyridin-2-yl]-{6-[4-(2-morpholin-4-yl-ethoxy)-phenyl]-imidazo[1,2-b]pyridazin-8-yl}-amine]
14 | 51 | CC1CCCN1c1cccc(Nc2cc(-c3cccc(OCCN4CCOCC4)c3)nn3ccnc23)n1 (stereo not drawn) [Example I-88, [6-(2-Methyl-pyrrolidin-1-yl)-pyridin-2-yl]-{6-[3-(2-morpholin-4-yl-ethoxy)-phenyl]-imidazo[1,2-b]pyridazin-8-yl}-amine]
15 | 88.5 | CC1CCN(c2cccc(Nc3cc(-c4ccccc4)nn4ccnc34)n2)C1 (stereo not drawn) [Example I-25, [6-(3-Methyl-pyrrolidin-1-yl)-pyridin-2-yl]-(6-phenyl-imidazo[1,2-b]pyridazin-8-yl)-amine]
16 | 369 | COC(=O)c1ccc(-c2cc(Nc3cccc(N4CCCC4C)n3)c3nccn3n2)cc1 (stereo not drawn) [Example I-14, 4-{8-[6-(2-Methyl-pyrrolidin-1-yl)-pyridin-2-ylamino]-imidazo[1,2-b]pyridazin-6-yl}-benzoic acid methyl ester]
17 | 159 | Cc1ccccc1-c1cc(Nc2cccc(N3CCCC3C)n2)c2nccn2n1 (stereo not drawn) [Example I-47, [6-(2-Methyl-pyrrolidin-1-yl)-pyridin-2-yl]-(6-o-tolyl-imidazo[1,2-b]pyridazin-8-yl)-amine]
18 | 56.6 | CC(=O)N1CCc2ccc(-c3cc(Nc4cccc(N5CCCC5C)n4)c4nccn4n3)cc2C1 (stereo not drawn) [Example I-64, 1-(7-{8-[6-(2-Methyl-pyrrolidin-1-yl)-pyridin-2-ylamino]-imidazo[1,2-b]pyridazin-6-yl}-3,4-dihydro-1H-isoquinolin-2-yl)-ethanone]
19 | 614 | CC1CCCN1c1cccc(Nc2cc(-c3cccc(C#N)c3)nn3ccnc23)n1 (stereo not drawn) [Example I-80, 3-{8-[6-(2-Methyl-pyrrolidin-1-yl)-pyridin-2-ylamino]-imidazo[1,2-b]pyridazin-6-yl}-benzonitrile]
20 | 593 | COc1ccc(Nc2cc(-c3cccc(C(=O)Nc4ccc5c(c4)CNC5=O)c3)nn3ccnc23)nc1OC [Example I-56, 3-[8-(5,6-Dimethoxy-pyridin-2-ylamino)-imidazo[1,2-b]pyridazin-6-yl]-N-(1-oxo-2,3-dihydro-1H-isoindol-5-yl)-benzamide]
21 | 36.1 | C[C@H]1CCCN1c1cccc(Nc2cc(-c3ccc4ncsc4c3)nn3ccnc23)n1 [Example I-52, (6-Benzothiazol-6-yl-imidazo[1,2-b]pyridazin-8-yl)-[6-((S)-2-methyl-pyrrolidin-1-yl)-pyridin-2-yl]-amine]
22 | 47.6 | COc1ccc(Nc2cc(-c3ccccc3)nn3ccnc23)nc1OC [Example I-44, (5,6-Dimethoxy-pyridin-2-yl)-(6-phenyl-imidazo[1,2-b]pyridazin-8-yl)-amine]
23 | 60.6 | CCN(CC)CCOc1ccc(-c2cc(Nc3cccc(N4CCCC4C)n3)c3nccn3n2)cc1 (stereo not drawn) [Example I-92, {6-[4-(2-Diethylamino-ethoxy)-phenyl]-imidazo[1,2-b]pyridazin-8-yl}-[6-(2-methyl-pyrrolidin-1-yl)-pyridin-2-yl]-amine]
24 | 79 | COc1ccc(Nc2cc(-c3ccc(C(=O)NCCc4ccn(C)c(=O)c4)cc3)nn3ccnc23)nc1OC [Example I-33, 4-[8-(5,6-Dimethoxy-pyridin-2-ylamino)-imidazo[1,2-b]pyridazin-6-yl]-N-[2-(1-methyl-2-oxo-1,2-dihydro-pyridin-4-yl)-ethyl]-benzamide]
25 | 904 | CC1CC(C)CN(c2cccc(Nc3cc(-c4cccc(C(=O)O)c4)nn4ccnc34)n2)C1 (stereo not drawn) [Example I-38, 3-[8-(3,5-Dimethyl-3,4,5,6-tetrahydro-2H-[1,2′]bipyridinyl-6′-ylamino)-imidazo[1,2-b]pyridazin-6-yl]-benzoic acid]
26 | 696 | CC(C)(C)C1CCN(c2cccc(Nc3cc(-c4cccc(C(=O)O)c4)nn4ccnc34)n2)C1 (stereo not drawn) [Example I-66, 3-{8-[6-(3-tert-Butyl-pyrrolidin-1-yl)-pyridin-2-ylamino]-imidazo[1,2-b]pyridazin-6-yl}-benzoic acid]
27 | 442 | O=C(O)c1cccc(-c2cc(Nc3cccc(N4CC5CC5C4)n3)c3nccn3n2)c1 (stereo not drawn) [Example I-23, 3-{8-[6-(3-Aza-bicyclo[3.1.0]hex-3-yl)-pyridin-2-ylamino]-imidazo[1,2-b]pyridazin-6-yl}-benzoic acid]

Row | SMILES | IC50 [nM]
28 | OCC1CCCN1c1cccc(Nc2cc(-c3ccccc3)nn3ccnc23)n1 (stereo not drawn) [Example I-31, {1-[6-(6-Phenyl-imidazo[1,2-b]pyridazin-8-ylamino)-pyridin-2-yl]-pyrrolidin-2-yl}-methanol hydrochloride] | 270
29 | CCC1CCCN1c1cccc(Nc2cc(-c3ccccc3)nn3ccnc23)n1 (stereo not drawn) [Example I-30, [6-(2-Ethyl-pyrrolidin-1-yl)-pyridin-2-yl]-(6-phenyl-imidazo[1,2-b]pyridazin-8-yl)-amine hydrochloride] | 1960
30 | COCC1CCCN1c1cccc(Nc2cc(-c3ccccc3)nn3ccnc23)n1 (stereo not drawn) [Example I-35, [6-(2-Methoxymethyl-pyrrolidin-1-yl)-pyridin-2-yl]-(6-phenyl-imidazo[1,2-b]pyridazin-8-yl)-amine hydrochloride] | 834
